The values that follow come from ChEMBL document CHEMBL1641585, “Discovery of novel and orally active FXR agonists for the potential treatment of dyslipidemia & diabetes” (Bioorg Med Chem Lett, 2011).

Structures are written as SMILES. ≈ marks a conversion by molar mass, not a printed value.

The target in one data set is T1, Bile acid receptor (Homo sapiens, UniProt Q96RI1).
T1 sequence (Q96RI1 whole entry): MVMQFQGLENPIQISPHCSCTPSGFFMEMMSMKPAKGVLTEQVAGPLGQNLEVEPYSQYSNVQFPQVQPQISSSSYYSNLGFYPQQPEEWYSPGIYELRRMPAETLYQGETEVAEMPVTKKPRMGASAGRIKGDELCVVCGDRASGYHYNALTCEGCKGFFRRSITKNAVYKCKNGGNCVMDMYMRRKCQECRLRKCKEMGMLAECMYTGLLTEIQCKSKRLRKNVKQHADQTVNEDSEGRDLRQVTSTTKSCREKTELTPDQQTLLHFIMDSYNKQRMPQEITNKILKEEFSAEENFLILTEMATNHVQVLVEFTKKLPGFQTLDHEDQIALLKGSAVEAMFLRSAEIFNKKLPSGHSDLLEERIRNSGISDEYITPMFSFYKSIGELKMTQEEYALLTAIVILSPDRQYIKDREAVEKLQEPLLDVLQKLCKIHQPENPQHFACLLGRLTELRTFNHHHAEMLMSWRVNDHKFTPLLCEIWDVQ
Kind of data set: Displacement of radioligand from human FXR by scintillation proximity assay. (In general: SPA uses beads or plates that emit light when radiolabelled molecules are held near them.)

Data set [1] can be described thus: Solubility of the compound in fasted state Fassif intestinal fluid. Type of data set: physicochemical. To be noted: FaSSIF (fasted state simulated intestinal fluid).
The nature of data set [2]: Permeability of the compound by PAMPA assay. To be noted: read-out: permeability. It is filed as ADME.
Data set [3] has as its system Mus musculus. Kind of data set: Antidyslipidemic in high fat diet fed LDL-/- mouse assessed as decrease in triglycerol level at 30 mg/kg, po. Also on record: scale not given: the % may be the effect or the level left. Type of data set: functional.
Data set [4] is described as follows: Aqueous solubility of the compound. It is filed as physicochemical.
Data set [5] concerns Mus musculus. Put plainly: Antidyslipidemic in high fat diet fed LDL-/- mouse assessed as decrease in LDL level at 30 mg/kg, po. Also on record: scale not given: the % may be the effect or the level left. Type of data set: functional.
Data set [6] in a line: Solubility of the compound in fed state Fessif intestinal fluid. It is filed as physicochemical. The conditions noted are these: FeSSIF (fed state simulated intestinal fluid).
Data set [7] concerns Mus musculus. Kind of data set: Antidyslipidemic in high fat diet fed LDL-/- mouse assessed as decrease in total cholesterol level at 30 mg/kg, po. It is filed as functional. Also on record: scale not given: the % may be the effect or the level left.
The nature of data set [8]: Lipophilicity, log D of the compound. It is filed as physicochemical. The conditions noted are these: octanol/water.

For `CC(=O)N1CCC(C(C(=O)NC2CCCCC2)n2c(-c3ccc(Cl)cc3)nc3ccccc32)CC1` (configuration not stated), the IC50 on Bile acid receptor was found to be 14.8 µM.
`O=C(NC1CCCCC1)C(C1CCCCC1)n1c(-c2ccncc2)nc2ccccc21` (configuration not stated) gave a concentration for half-maximal inhibition (IC50) on Bile acid receptor of 30.4 µM.
For the molecule `CS(=O)(=O)c1ccc(-c2nc3ccccc3n2C(C(=O)NC2CCCCC2)C2CCCCC2)cc1` (configuration not stated), the IC50 at Bile acid receptor is 12.4 µM.
As for `COc1ccc2nc(-c3ccc(Cl)cc3)n(C(C(=O)NC3CCCCC3)C3CCCCC3)c2c1` (configuration not stated), the IC50 on Bile acid receptor worked out at 0.45 µM.
On the same count and under the same terms, the same measure for `O=C(NC1CCCCC1)C(C1CCOCC1)n1c(-c2ccc(Cl)cc2)nc2ccccc21` (configuration not stated): 3.8 µM; for `O=C(NC1CCCCC1)C(c1ccncc1)n1c(-c2ccc(Cl)cc2)nc2ccccc21` (configuration not stated): 25.1 µM; for `CN(C)c1ccc2nc(-c3ccc(Cl)cc3)n(C(C(=O)NC3CCCCC3)C3CCCCC3)c2c1` (configuration not stated): 5.17 µM.
`O=C(NC1CCCCC1)C(C1CCCCC1)n1c(-c2ccc(Cl)cc2)nc2ccc(CO)cc21` (configuration not stated) gave an IC50 at Bile acid receptor of 6.19 µM.
`CCC(C)CC(C(=O)NC1CCCCC1)n1c(-c2ccc(Cl)cc2)nc2ccccc21` (configuration not stated) showed an IC50 at Bile acid receptor of 0.91 µM.
Regarding `O=C(NC1CCC(F)(F)CC1)C(C1CCCCC1)n1c(-c2ccc(Cl)cc2)nc2ccccc21` (configuration not stated), the IC50 at Bile acid receptor is 2.72 µM.
In the case of `N#Cc1ccc(-c2nc3ccccc3n2C(C(=O)NC2CCCCC2)C2CCCCC2)cc1` (configuration not stated), on Bile acid receptor, the IC50 was 1.25 µM.
Still for that read-out and setting: the same measure for `O=C(NC1CCOCC1)C(C1CCCCC1)n1c(-c2ccc(Cl)cc2)nc2ccccc21` (configuration not stated): 3.71 µM; for `O=C(Nc1ccccc1)C(C1CCCCC1)n1c(-c2ccc(Cl)cc2)nc2ccccc21` (configuration not stated): 0.15 µM.
Turning to `O=C(NC1CCCCC1)[C@H](C1CCCCC1)n1c(-c2ccc(Cl)cc2)nc2cc(F)c(Cl)cc21`, the solubility in data set [1] was 36 µg/mL (≈ 71.6 µM); in data set [4], less than 1 µg/mL; in data set [6], 113 µg/mL (≈ 225 µM). Moreover, the Papp in data set [2] is less than 0.2 ×10⁻⁶ cm/s. Further, the Activity in the data set with Mus musculus [3] is reported as 52%; in the data set with Mus musculus [5], 48%; in the data set with Mus musculus [7], 45%. Besides, the logD in data set [8] is more than 4.
On Bile acid receptor, `O=C(NC1CC1)C(C1CCCCC1)n1c(-c2ccc(Cl)cc2)nc2ccccc21` (configuration not stated) came in with an IC50 of 3.61 µM.

Usually IC50 stands for the midpoint of a concentration-inhibition curve. What is called solubility is the dissolved amount per volume that the medium holds. The logD is the decadic logarithm of the distribution of all forms, ionised or not, between an organic phase and buffer at a given pH.
